# Literature values, collected in patent publication EP1803441A1 (Teva Pharmaceutical Industries Ltd, priority 2005, dated 2007).
# What was measured:
# [1] = oral administration
# [2] = orally administered tablets
structure (smiles),measurement,setting,value
"CC(C)OC(=O)C(C)(C)Oc1ccc(C(=O)c2ccc(Cl)cc2)cc1 [fenofibrate, 2-[4-(4-chlorobenzoyl)phenoxy]-2-methyl-propanoic acid, 1-methylethyl ester]",part of a single dose excreted in the feces,[1],25%
same,increase of the extent of absorption when tablets are taken with food,[2],approximately 35%
